Test results reported in patent US20230365938A1, “METHODS OF FORMING COMPOSITIONS CONTAINING COLLAGEN” (priority 2019, published 2023).

Experiments:
[1] = system: Human mesenchymal stem cells (hMSC); experiment: Cell proliferation (MTS) of hMSC treated with RSV, NAM or RSV+NAM; assay type: cell-based; conditions: 48 hours, serum-free media, normoxia, increasing dose, vs DMSO control
Procedure: Human mesenchymal stem cells (hMSC) were obtained from American Type Culture Collection (ATCC, Manassas, VA). Cells were stored in liquid nitrogen until use. MSCs were maintained in minimum essential medium, alpha (aMEM, Corning®, Corning, NY) supplemented with 16% Fetal Bovine Serum (FBS, VWR, Radnor, PA) and 4 mM L-glutamine (Sigma-Aldrich, St. Louis, MO). Medium was changed every other day, and once the cells reached 70-80% confluence, the cells were detached by trypsin-EDTA solution (VWR, Radnor, PA). hMSC were seeded (density 5,000 cells/cm^2) on 25 cm^2. When cells reached 80% confluency (4-5 days), they were washed two times with 5 ml of PBS. The growth media was then changed to serum-free media with or without a product treatment (5 ml), and the cells were cultured for 48 hours. […] Cell proliferation was assessed using CellTiter 96® AQueous Non-Radioactive Cell Proliferation Assay (MTS, Promega, Madison WI) based on the redox conversion of a tetrazolium salt into formazan product. […] The cells were incubated for 2 hours, and the absorbance of each well at 490 nm was measured using a SpectraMax® 190 Microplate Reader. Cell proliferation was determined using MTS, colorimetric assay after the cells were treated for 48 hours in serum free media with the vehicle (DMSO) as control, resveratrol (RSV), nicotinamide (NAM), or a combination (RSV+NAM) in serum-free media under normoxia. […]

[2] = system: hMSC secretome; experiment: LC-MS/MS analysis of secreted proteins in the secretome; assay type: cell-based, human; conditions: n=4; for number of down-regulated proteins (Fold ≤ 1.5) vs control / number of up-regulated proteins (Fold ≥ 1.5) vs control: vs DMSO under normoxia
Procedure: Human mesenchymal stem cells (hMSC) were obtained from American Type Culture Collection (ATCC, Manassas, VA). Cells were stored in liquid nitrogen until use. MSCs were maintained in minimum essential medium, alpha (aMEM, Corning®, Corning, NY) supplemented with 16% Fetal Bovine Serum (FBS, VWR, Radnor, PA) and 4 mM L-glutamine (Sigma-Aldrich, St. Louis, MO). Medium was changed every other day, and once the cells reached 70-80% confluence, the cells were detached by trypsin-EDTA solution (VWR, Radnor, PA). hMSC were seeded (density 5,000 cells/cm^2) on 25 cm^2. When cells reached 80% confluency (4-5 days), they were washed two times with 5 ml of PBS. The growth media was then changed to serum-free media with or without a product treatment (5 ml), and the cells were cultured for 48 hours. Experiments were performed in two different environments, normoxia (about 18.6% oxygen) and hypoxia (5% oxygen). Cells were incubated at 37° C. and 5% CO2 throughout the experiment.
To characterize the hMSC secretome, condition media (CM or secretome) was collected from cells cultured under FBS-free for 48 hours. CM was filtered through a 0.45 μm syringe filter to remove residual cells and cell debris. The resulting condition media was concentrated and washed 3 times with 50 mM ammonium bicarbonate using Corning® Spin-X® UF Concentrators (10K Dalton, Corning®, Corning, NY) at 3,000 g for 25 minutes each cycle. Following, the secretome was collected from the concentrator, frozen at −80° C., and lyophilized 24 hours. Lyophilized secretome was stored at −80° C. For functional experiments with CM, normal hMSCs (passages 6-8) were used.
The amount of secretome was normalized in all samples, and 50 μl of the sample were pipetted in microcentrifuge units (Millipore, Burlington, MA) and digested following the filter aided sample preparation (FASP) protein digestion kit from Expedeon (San Diego, CA). Samples were reduced using 0.1 M dithiothreitol for 15 minutes at 50° C. […] was achieved using iodoacetamide for 20 minutes at room temperature following by 2× washing steps with 8 M urea and 50 mM ammonium bicarbonate. The samples were then enzymatically digested with trypsin at 37° C. overnight. Finally, samples were collected by spinning the microcentrifuge units at 14000 rcf for 20 minutes with a final wash with distilled water and freeze-dried. Prior to LC-MS/MS analysis, samples were resuspended in 0.1% formic acid.
Mass spectrometry analysis was executed in the orbitrap Thermo Velos Pro system (Thermo Fisher Scientific, Waltman, MA) using Thermo Xcalibur™ Roadmap software (Thermo Fisher Scientific, Waltman, MA). For this study, secretome from 4 independent experiments were processed and analyzed independently.
Mass spectra were analyzed using Proteome Discoverer™ 2.1 (Thermo Fisher Scientific, Waltman, MA) label-free differential protein expression analysis and the Sequest™ HT. Xcalibur™ raw data collected from the mass spectrometer was imported from the MS spectra and processed as followed. Only features compromising charges of 2+ and 3+ were selected. The mass precision was 2 ppm and mass tolerance 0.02 Da for fragment mass tolerance. Trypsin was set as the digestion enzyme with a maximum of two allowed missed cleavages with six as the minimum peptide length. Cysteine carbamidomethylation (C) was set as a fixed modification, and N-terminal acetylation and methionine oxidation were allowed as variable modifications. The spectra were searched using the Sequest™ HT search engine against the human Uniprot sequence database. Percolator node was used to filter data using 0.1 for FDR at the peptide and protein level. For relative quantification in a label-free analysis, the precursor ion area detector node was used, and ratios were calculated by dividing the treated samples vs. the control group (DMSO under normoxia). […]

Compound	cell proliferation (MTS) versus control [1]	Total proteins (number of proteins secreted) ([2]; Hypoxia (5% O2))	Unique vs control (number of unique proteins) ([2]; Hypoxia (5% O2))	number of down-regulated proteins (Fold ≤ 1.5) vs control ([2]; Hypoxia (5% O2))	number of up-regulated proteins (Fold ≥ 1.5) vs control ([2]; Hypoxia (5% O2))	Total proteins (number of proteins secreted) ([2]; Normoxia)	Unique vs control (number of unique proteins) ([2]; Normoxia)	number of down-regulated proteins (Fold ≤ 1.5) vs control ([2]; Normoxia)	number of up-regulated proteins (Fold ≥ 1.5) vs control ([2]; Normoxia)
NC(=O)c1cccnc1 [nicotinamide]	not a significant difference	–	–	–	–	–	–	–	–
Oc1ccc(/C=C/c2cc(O)cc(O)c2)cc1 [RSV, 3,5,4′-trihydroxy-trans-stilbene]	not a significant difference	55	2	0	30	51	2	3	7
